Measured values: article doi:10.1101/2025.11.20.689572v1 (biorxiv, 2025)
Read-outs that look alike come from different tables or passages of the source.

Columns and labels:
α2B = target: T1, α2B (Homo sapiens, UniProt P18089); assay: competitive radioligand binding, HEK293 membranes
T1 construct: gene ADRA2B; full-length receptor; HEK293 cell membranes
Excerpt: competitive radioligand binding, HEK293 membranes on α2B

CHRM3 = CHRM3 (Homo sapiens, UniProt P20309); assay: cell-based; parameters: species or system HEK293; TRUPATH BRET2 G-protein dissociation; antagonist mode against agonist EC80; settings: agonist mode, % of control agonist
HTR1A = target: T2, HTR1A (Homo sapiens, UniProt P08908); assay: cell-based; parameters: species or system HEK293; TRUPATH BRET2 G-protein dissociation; antagonist mode against agonist EC80; settings: agonist mode, % of control agonist
T2 sequence (P08908 1-422): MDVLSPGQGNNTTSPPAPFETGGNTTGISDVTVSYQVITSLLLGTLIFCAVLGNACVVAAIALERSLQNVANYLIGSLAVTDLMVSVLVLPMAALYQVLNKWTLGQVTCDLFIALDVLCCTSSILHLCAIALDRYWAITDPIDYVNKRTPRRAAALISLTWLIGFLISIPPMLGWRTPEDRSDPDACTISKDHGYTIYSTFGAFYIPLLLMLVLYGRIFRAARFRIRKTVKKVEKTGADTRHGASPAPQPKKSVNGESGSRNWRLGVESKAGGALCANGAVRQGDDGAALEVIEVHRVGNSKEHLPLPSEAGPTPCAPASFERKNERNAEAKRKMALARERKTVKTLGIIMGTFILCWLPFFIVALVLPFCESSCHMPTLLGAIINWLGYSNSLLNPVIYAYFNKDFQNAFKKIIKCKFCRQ

HTR1D = HTR1D (Homo sapiens, UniProt P28221); assay: cell-based; parameters: species or system HEK293; TRUPATH BRET2 G-protein dissociation; antagonist mode against agonist EC80; settings: agonist mode, % of control agonist
CHRM5 = target: T3, CHRM5 (Homo sapiens, UniProt P08912); assay: cell-based; parameters: species or system HEK293; TRUPATH BRET2 G-protein dissociation; antagonist mode against agonist EC80; settings: agonist mode, % of control agonist
T3 sequence (P08912 1-532): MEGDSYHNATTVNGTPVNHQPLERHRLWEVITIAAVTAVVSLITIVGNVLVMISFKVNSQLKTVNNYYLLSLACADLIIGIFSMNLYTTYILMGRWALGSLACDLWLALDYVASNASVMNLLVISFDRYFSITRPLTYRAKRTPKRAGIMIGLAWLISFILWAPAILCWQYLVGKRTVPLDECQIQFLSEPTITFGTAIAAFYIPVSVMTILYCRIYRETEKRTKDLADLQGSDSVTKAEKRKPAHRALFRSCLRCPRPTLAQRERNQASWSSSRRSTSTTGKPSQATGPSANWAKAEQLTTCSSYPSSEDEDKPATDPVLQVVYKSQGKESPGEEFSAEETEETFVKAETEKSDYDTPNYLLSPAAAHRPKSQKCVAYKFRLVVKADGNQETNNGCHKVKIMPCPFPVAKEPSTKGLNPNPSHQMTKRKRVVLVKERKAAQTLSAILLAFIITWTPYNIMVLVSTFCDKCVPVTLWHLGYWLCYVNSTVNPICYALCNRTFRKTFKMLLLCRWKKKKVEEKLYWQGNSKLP

CHRM4 = target: T4, CHRM4 (Homo sapiens, UniProt P08173); assay: cell-based; parameters: species or system HEK293; TRUPATH BRET2 G-protein dissociation; antagonist mode against agonist EC80; settings: agonist mode, % of control agonist
T4 sequence (P08173 1-479): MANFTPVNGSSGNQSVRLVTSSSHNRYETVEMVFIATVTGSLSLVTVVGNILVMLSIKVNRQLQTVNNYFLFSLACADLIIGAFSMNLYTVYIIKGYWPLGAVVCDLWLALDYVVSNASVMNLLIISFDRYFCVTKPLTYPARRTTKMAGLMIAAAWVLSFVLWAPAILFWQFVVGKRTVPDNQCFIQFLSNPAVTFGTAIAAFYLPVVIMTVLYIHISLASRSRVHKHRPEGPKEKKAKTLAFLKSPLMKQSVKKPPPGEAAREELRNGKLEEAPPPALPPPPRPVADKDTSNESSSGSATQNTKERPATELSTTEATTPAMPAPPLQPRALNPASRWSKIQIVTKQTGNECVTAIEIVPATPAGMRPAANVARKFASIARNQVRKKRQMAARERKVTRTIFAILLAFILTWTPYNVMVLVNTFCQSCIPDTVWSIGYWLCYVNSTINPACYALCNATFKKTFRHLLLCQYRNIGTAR

[1] = HEK293, read-out: N-Desmethyl Xanomeline, Assay=Gq
[2] = HEK293, read-out: N-Desmethyl Xanomeline, Assay=Gi2
[3] = HEK293, read-out: N-Desmethyl Xanomeline, Assay=GoA
[4] = HEK293, read-out: N-Desmethyl Xanomeline, Assay=GoB
[5] = HEK293, read-out: N-Desmethyl Xanomeline, Assay=Gi1
[6] = HEK293, read-out: N-Desmethyl Xanomeline, Assay=Gi3
[7] = HEK293, read-out: N-Desmethyl Xanomeline, Assay=Gz
[8] = HEK293, read-out: Xanomeline, Assay=Gq
[9] = HEK293, read-out: Xanomeline, Assay=Gi2
[10] = HEK293, read-out: Xanomeline, Assay=GoA
[11] = HEK293, read-out: Xanomeline, Assay=GoB
[12] = HEK293, read-out: Xanomeline, Assay=Gi1
[13] = HEK293, read-out: Xanomeline, Assay=Gi3
[14] = HEK293, read-out: Xanomeline, Assay=Gz

Chain of HTR1D (P28221 whole entry): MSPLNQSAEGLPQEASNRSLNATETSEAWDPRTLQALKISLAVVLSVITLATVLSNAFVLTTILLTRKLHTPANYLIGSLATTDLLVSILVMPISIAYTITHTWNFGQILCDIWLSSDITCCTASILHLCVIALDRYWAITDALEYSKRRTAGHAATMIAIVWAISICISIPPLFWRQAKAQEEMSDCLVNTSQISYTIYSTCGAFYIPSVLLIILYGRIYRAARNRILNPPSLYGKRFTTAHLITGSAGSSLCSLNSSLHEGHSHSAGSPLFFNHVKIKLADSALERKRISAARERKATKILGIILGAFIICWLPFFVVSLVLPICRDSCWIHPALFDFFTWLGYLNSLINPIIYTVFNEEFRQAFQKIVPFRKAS
T1 sequence (P18089 whole entry): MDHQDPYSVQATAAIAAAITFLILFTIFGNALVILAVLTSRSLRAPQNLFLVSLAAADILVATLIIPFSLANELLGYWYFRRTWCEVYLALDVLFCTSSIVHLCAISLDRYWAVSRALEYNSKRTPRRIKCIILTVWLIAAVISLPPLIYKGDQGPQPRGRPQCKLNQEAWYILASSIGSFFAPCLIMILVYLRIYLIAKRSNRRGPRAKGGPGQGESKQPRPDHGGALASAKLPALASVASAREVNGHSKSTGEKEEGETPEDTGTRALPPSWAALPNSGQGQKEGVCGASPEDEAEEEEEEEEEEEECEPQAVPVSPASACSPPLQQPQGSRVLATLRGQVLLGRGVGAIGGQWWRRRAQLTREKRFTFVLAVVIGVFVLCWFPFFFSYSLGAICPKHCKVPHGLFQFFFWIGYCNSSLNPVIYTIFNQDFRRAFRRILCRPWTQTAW
Chain of CHRM3 (P20309 whole entry): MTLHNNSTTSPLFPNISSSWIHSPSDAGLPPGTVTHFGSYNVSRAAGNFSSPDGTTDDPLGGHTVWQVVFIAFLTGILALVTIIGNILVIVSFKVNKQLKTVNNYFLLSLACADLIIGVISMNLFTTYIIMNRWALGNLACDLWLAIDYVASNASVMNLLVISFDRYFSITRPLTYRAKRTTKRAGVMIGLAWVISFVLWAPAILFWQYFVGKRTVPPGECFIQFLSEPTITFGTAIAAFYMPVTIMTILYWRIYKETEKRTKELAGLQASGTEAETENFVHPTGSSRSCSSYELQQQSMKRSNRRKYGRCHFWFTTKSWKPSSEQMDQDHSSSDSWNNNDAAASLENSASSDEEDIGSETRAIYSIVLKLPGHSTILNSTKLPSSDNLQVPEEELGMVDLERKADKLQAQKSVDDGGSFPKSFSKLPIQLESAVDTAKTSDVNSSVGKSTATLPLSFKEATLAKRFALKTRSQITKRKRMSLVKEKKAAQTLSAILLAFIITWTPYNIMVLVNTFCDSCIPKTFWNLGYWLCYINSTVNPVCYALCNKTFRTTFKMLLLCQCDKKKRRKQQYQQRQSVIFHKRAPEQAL

**Q.** With `CCCCCCOc1nsnc1C1=CCCNC1` [N-desmethylxanomeline] as the compound, how does the Ki (α2B) read?
**A.** 339 nM

**Q.** What about the Emax (CHRM3; [1]) of the same compound?
**A.** 62.4%

**Q.** And the Emax (HTR1A; [2])?
**A.** 103%

**Q.** What about the Emax (HTR1A; [3]) of the same compound?
**A.** 97.4%

**Q.** And the Emax (HTR1A; [4])?
**A.** 98.8%

**Q.** What about the Emax (HTR1D; [5]) of the same compound?
**A.** 88.1%

**Q.** What about the Emax (HTR1D; [2]) of the same compound?
**A.** 66.3%

**Q.** What about the Emax (HTR1D; [6]) of the same compound?
**A.** 82.1%

**Q.** And the Emax (HTR1D; [3])?
**A.** 92.2%

**Q.** What about the Emax (HTR1D; [4]) of the same compound?
**A.** 73.8%

**Q.** What about the Emax (HTR1D; [7]) of the same compound?
**A.** 93.6%

**Q.** What about the Emax (CHRM5; [1]) of the same compound?
**A.** 80.4%

**Q.** And the Emax (CHRM4; [5])?
**A.** 94.1%

**Q.** And the Emax (CHRM4; [2])?
**A.** 106%

**Q.** And the Emax (CHRM4; [6])?
**A.** 81.3%

**Q.** And the Emax (CHRM4; [3])?
**A.** 100%

**Q.** And the Emax (CHRM4; [4])?
**A.** 102%

**Q.** What about the Emax (CHRM4; [7]) of the same compound?
**A.** 89%

**Q.** `CCCCCCOc1nsnc1C1=CCCN(C)C1` [Xanomeline] was tested. Which Ki (α2B) did it give?
**A.** 316 nM

**Q.** And the Emax (CHRM3; [8])?
**A.** 65.6%

**Q.** What about the Emax (HTR1A; [9]) of the same compound?
**A.** 99.6%

**Q.** What about the Emax (HTR1A; [10]) of the same compound?
**A.** 94.5%

**Q.** What about the Emax (HTR1A; [11]) of the same compound?
**A.** 91.7%

**Q.** What about the Emax (HTR1D; [12]) of the same compound?
**A.** 69.7%

**Q.** And the Emax (HTR1D; [9])?
**A.** 52.7%

**Q.** What about the Emax (HTR1D; [13]) of the same compound?
**A.** 66.7%

**Q.** And the Emax (HTR1D; [10])?
**A.** 86.5%

**Q.** And the Emax (HTR1D; [11])?
**A.** 63.4%

**Q.** What about the Emax (HTR1D; [14]) of the same compound?
**A.** 85.3%

**Q.** What about the Emax (CHRM5; [8]) of the same compound?
**A.** 82%

**Q.** What about the Emax (CHRM4; [12]) of the same compound?
**A.** 98.4%

**Q.** And the Emax (CHRM4; [9])?
**A.** 110%

**Q.** What about the Emax (CHRM4; [13]) of the same compound?
**A.** 86%

**Q.** And the Emax (CHRM4; [10])?
**A.** 107%

**Q.** What about the Emax (CHRM4; [11]) of the same compound?
**A.** 106%

**Q.** And the Emax (CHRM4; [14])?
**A.** 94.1%
